# Test results reported in patent US12201610B2, “Compositions comprising aticaprant” (Janssen Pharmaceuticals, Inc., priority 2022, dated 2025).
# System: subjects with MDD
# Assay: SHAPS total score / anhedonia level (Example 6)
# Type: in vivo, human
# Conditions: for SHAPS Total Score Change from Baseline LSMean (SE) / SHAPS Total Score LSMean Difference (SE) Treatment Placebo: MMRM; for SHAPS Total Score Effect Size: negative favors aticaprant
# From the text: To assess a potential effect on anhedonia, an anhedonia scale may be used. For example, the Snaith-Hamilton Pleasure Scale (SHAPS) analysis is a validated scale for the measurement of anhedonia. The SHAPS is a subject completed scale in which subjects score whether or not they experience pleasure in performing a list of activities or experiences. The SHAPS is a self-reported 14-item instrument, developed for the assessment of hedonic capacity. Subjects score whether they experience pleasure in performing a list of activities or experiences. Subjects can rate the answers as 1-4 where 1 indicates “Definitely agree”, 2 indicates “Agree”, 3 indicates “Disagree” and 4 indicates “Definitely disagree”. The subject's item responses are summed to provide a total score ranging from 14 to 56. A higher total SHAPS score indicates higher levels of current anhedonia. Physician/clinical judgment can be used to assess anhedonia separately or in conjunction with an anhedonia scale.
# In some embodiments, the patient has moderate anhedonia. In other embodiments, the patient has severe anhedonia. An assessment of moderate or severe anhedonia is typically determined physician/clinical judgment and/or by one or more tests that provide insight into whether a patient has anhedonia. For example, the severity of the anhedonia may be determined using the SHAPS method. In some embodiments, a patient with moderate or severe anhedonia is considered to have a high level of anhedonia. For example, a patient with a SHAPS score of 38 or greater is considered to have moderate to severe anhedonia that can be considered a high level of anhedonia. In some embodiments, a high level of anhedonia is reflected by a SHAPS score of at least about 40, about 42, about 44, about 46, about 48, about 50, about 52, about 54, about 56, […]. A patient with mild or no anhedonia would be considered to have a low level of anhedonia that is assessed by physician/clinical judgment and/or one or more tests. For example, a patient with a SHAPS score of less than 38 is considered to have low anhedonia. In certain embodiments, a patient with mild anhedonia may have a SHAPS score of 20 to less than 38, for example, a SHAPS score of 20 to about 36, about 22 to about 36, about 24 to about 36, about 26 to about 36, about 26 to about 34, about 26 to about 32, about 26 to about 30, about 26 to about 28, about 28 to about 36, about 28 to about 36, about 30, to about 36, about 32 to about 36, about 34 to about 36, about 20 to about 34, about 22 to about 34, about 24 to about 34, about 26 to about 32, about 26 to about 30, about 26 to about 28, about 28 to about 36, about 28 to about 34, about 28 to about 32, about 28 to about 30, about 30 to about 36, about 30 to about 34, about 30 to about 32, about 32 to about 36, about 32 to about 34, or about 34 to about 36. Typically, a SHAPS score of less than 20 can be considered to correspond to normal hedonic functioning, and for purposes of this disclosure, would fall into the low category of anhedonia, e.g., a SHAPS score of less than 38.
# iii. To investigate the effect of aticaprant versus placebo on depression related anhedonia as assessed by the SHAPS.
# • (i) Depression: Montgomery-Åsberg Depression Rating Scale (MADRS), Clinical Global Impression-Severity (CGI-S), Symptoms of Major Depressive Disorder Scale (SMDDS), and Self-assessment of treatment experience (SATE) • (ii) Anhedonia: Snaith-Hamilton Pleasure Scale (SHAPS) • (iii) Anxiety: Structured Interview Guide for the Hamilton Anxiety scale (SIGH-A) and HAM-A6 • (iv) Effects on Cognition: The Cognitive and Physical Functioning Questionnaire (CPFQ) • (v) Safety assessments
# Changes in SHAPS total score were analyzed with the same MMRM model used for MADRS total score. The estimated LS Mean difference with 80% 2-sided CI at treatment week 6 between aticaprant and placebo was −0.7 [−1.81, 0.41]. See, FIG. 7 and Tables 28 and 29 and FIG. 18. The corresponding p-value was 0.419.
# [1] = eITT Analysis Set, Treatment Baseline
# [2] = eITT Analysis Set, Treatment Week 1
# [3] = eITT Analysis Set, Treatment Week 3
# [4] = eITT Analysis Set, Treatment Week 4
# [5] = eITT Analysis Set, Treatment Week 5
# [6] = eITT Analysis Set, Treatment Week 6
# [7] = eITT, Treatment Week 1, 10 mg adjunctive to SSRI/SNRI
# [8] = eITT, Treatment Week 3, 10 mg adjunctive to SSRI/SNRI
# [9] = eITT, Treatment Week 4, 10 mg adjunctive to SSRI/SNRI
# [10] = eITT, Treatment Week 5, 10 mg adjunctive to SSRI/SNRI
# [11] = eITT, Treatment Week 6, 10 mg adjunctive to SSRI/SNRI
# [12] = fITT Analysis Set, Baseline/Day 22, Table 42
# [13] = fITT Analysis Set, Treatment Baseline
# [14] = fITT Analysis Set, Treatment Week 1
# [15] = fITT Analysis Set, Treatment Week 3
# [16] = fITT Analysis Set, Treatment Week 4
# [17] = fITT Analysis Set, Treatment Week 5
# [18] = fITT Analysis Set, Treatment Week 6
smiles,measurement,setting,value
"Cc1cc(C)cc(C2CCCN2Cc2ccc(Oc3ccc(C(N)=O)cc3F)cc2)c1 (centres unmarked) [aticaprant, 3-fluoro-4-4-2-(3,5-dimethylphenyl)pyrrolidin-1-yl-methylphenoxybenzamide]","SHAPS total score estimated LS mean difference between aticaprant and placebo, MMRM","Treatment Week 6, population not given, follows Table 29 (fITT)",−0.8
same,"Frequency of subjects: High Level of Anhedonia (SHAPS Total Score >= 38), %",[1],(43.33%)
same,"Frequency of subjects: Low Level of Anhedonia (20 <= SHAPS Total Score < 38), %",[1],56.67%
same,SHAPS Total Score Change from Baseline Mean (SD),[2],−1.9
same,SHAPS Total Score Mean (SD),[2],34.5
same,SHAPS Total Score Change from Baseline LSMean (SE),[2],−1.7
same,SHAPS Total Score LSMean Difference (SE) Treatment Placebo,[2],−0.8 (0.86)
same,SHAPS Total Score Change from Baseline Mean (SD),[3],−3.4
same,SHAPS Total Score Mean (SD),[3],33.0
same,SHAPS Total Score Change from Baseline LSMean (SE),[3],−3.2
same,SHAPS Total Score LSMean Difference (SE) Treatment Placebo,[3],−1.4 (0.86)
same,SHAPS Total Score Change from Baseline Mean (SD),[4],−4.5
same,SHAPS Total Score Mean (SD),[4],32.0
same,SHAPS Total Score Change from Baseline LSMean (SE),[4],−4.3
same,SHAPS Total Score LSMean Difference (SE) Treatment Placebo,[4],−1.4 (0.86)
same,SHAPS Total Score Change from Baseline Mean (SD),[5],−4.3
same,SHAPS Total Score Mean (SD),[5],32.4
same,SHAPS Total Score Change from Baseline LSMean (SE),[5],−4.0
same,SHAPS Total Score LSMean Difference (SE) Treatment Placebo,[5],−0.5 (0.87)
same,"Frequency of subjects: High Level of Anhedonia (SHAPS Total Score >= 38), %",[6],(13.56%)
same,"Frequency of subjects: Low Level of Anhedonia (20 <= SHAPS Total Score < 38), %",[6],81.36%
same,"Frequency of subjects: No Anhedonia (SHAPS Total Score < 20), %",[6],5.08%
same,SHAPS Total Score Change from Baseline Mean (SD),[6],−4.6
same,SHAPS Total Score Mean (SD),[6],31.9
same,SHAPS Total Score Change from Baseline LSMean (SE),[6],−4.4
same,SHAPS Total Score LSMean Difference (SE) Treatment Placebo,[6],−0.7 (0.87)
same,SHAPS Total Score Mean Change from Baseline (SD),[7],−1.9 (4.30)
same,SHAPS Total Score Mean Change to Placebo (SD pooled),[7],−0.6 (3.77)
same,SHAPS Total Score Effect Size,"eITT, Treatment Week 1, vs placebo",−0.15
same,SHAPS Total Score Mean Change from Baseline (SD),[8],−3.4 (5.25)
same,SHAPS Total Score Mean Change to Placebo (SD pooled),[8],−1.2 (4.96)
same,SHAPS Total Score Effect Size,"eITT, Treatment Week 3, vs placebo",−0.25
same,SHAPS Total Score Mean Change from Baseline (SD),[9],−4.5 (5.89)
same,SHAPS Total Score Mean Change to Placebo (SD pooled),[9],−1.2 (5.21)
same,SHAPS Total Score Effect Size,"eITT, Treatment Week 4, vs placebo",−0.23
same,SHAPS Total Score Mean Change from Baseline (SD),[10],−4.3 (6.07)
same,SHAPS Total Score Mean Change to Placebo (SD pooled),[10],−0.4 (5.49)
same,SHAPS Total Score Effect Size,"eITT, Treatment Week 5, vs placebo",−0.08
same,"SHAPS total score estimated LS mean difference between aticaprant and placebo, MMRM","eITT, Treatment Week 6",−0.7
same,SHAPS Total Score Mean Change from Baseline (SD),[11],−4.6 (6.23)
same,SHAPS Total Score Mean Change to Placebo (SD pooled),[11],−0.4 (5.66)
same,"Frequency of subjects: Anhedonia (SHAPS Total Score >=20), %",[12],98.8%
same,"Frequency of subjects: No Anhedonia (SHAPS Total Score < 20), %",[12],1.2%
same,"Frequency of subjects: High Level of Anhedonia (SHAPS Total Score >= 38), %",[13],36.14%
same,"Frequency of subjects: Low Level of Anhedonia (20 >= SHAPS Total Score <38), %",[13],62.65%
same,"Frequency of subjects: No Anhedonia (SHAPS Total Score < 20), %","fITT Analysis Set, Treatment Baseline, Table 44",1.2%
same,SHAPS Total Score Mean (SD),[14],32.9
same,SHAPS Total Score Mean Change to Placebo (SD pooled),[14],−0.6 (3.82)
same,SHAPS Total Score Change from Baseline Mean (SD),"fITT Analysis Set, Treatment Week 1 (Table 29)",−2.0
same,SHAPS Total Score Mean Change from Baseline (SD),"fITT Analysis Set, Treatment Week 1 (Table 30)",−2.0 (4.05)
same,SHAPS Total Score Change from Baseline LSMean (SE),[14],−1.9
same,SHAPS Total Score LSMean Difference (SE) Treatment Placebo,[14],−1.0 (0.72)
same,SHAPS Total Score Effect Size,[14],−0.15
same,SHAPS Total Score Mean (SD),[15],31.9
same,SHAPS Total Score Mean Change to Placebo (SD pooled),[15],−1.0 (5.09)
same,SHAPS Total Score Change from Baseline Mean (SD),"fITT Analysis Set, Treatment Week 3 (Table 29)",−3.2
same,SHAPS Total Score Mean Change from Baseline (SD),"fITT Analysis Set, Treatment Week 3 (Table 30)",−3.2 (5.07)
same,SHAPS Total Score Change from Baseline LSMean (SE),[15],−3.1
same,SHAPS Total Score LSMean Difference (SE) Treatment Placebo,[15],−1.4 (0.73)
same,SHAPS Total Score Effect Size,[15],−0.20
same,SHAPS Total Score Mean (SD),[16],30.8
same,SHAPS Total Score Mean Change to Placebo (SD pooled),[16],−1.2 (5.08)
same,SHAPS Total Score Change from Baseline Mean (SD),"fITT Analysis Set, Treatment Week 4 (Table 29)",−4.2
same,SHAPS Total Score Mean Change from Baseline (SD),"fITT Analysis Set, Treatment Week 4 (Table 30)",−4.2 (5.70)
same,SHAPS Total Score Change from Baseline LSMean (SE),[16],−4.1
same,SHAPS Total Score LSMean Difference (SE) Treatment Placebo,[16],−1.6 (0.73)
same,SHAPS Total Score Effect Size,[16],−0.23
same,SHAPS Total Score Mean (SD),[17],30.9
same,SHAPS Total Score Mean Change to Placebo (SD pooled),[17],−0.5 (5.24)
same,SHAPS Total Score Change from Baseline Mean (SD),"fITT Analysis Set, Treatment Week 5 (Table 29)",−4.3
same,SHAPS Total Score Mean Change from Baseline (SD),"fITT Analysis Set, Treatment Week 5 (Table 30)",−4.3 (5.70)
same,SHAPS Total Score Change from Baseline LSMean (SE),[17],−4.1
same,SHAPS Total Score LSMean Difference (SE) Treatment Placebo,[17],−0.8 (0.73)
same,SHAPS Total Score Effect Size,[17],−0.09
same,"Frequency of subjects: High Level of Anhedonia (SHAPS Total Score >= 38), %",[18],10.39%
same,"Frequency of subjects: Low Level of Anhedonia (20 >= SHAPS Total Score <38), %",[18],80.52%
same,"Frequency of subjects: No Anhedonia (SHAPS Total Score < 20), %",[18],9.09%
same,SHAPS Total Score Mean (SD),[18],30.5
same,SHAPS Total Score Mean Change to Placebo (SD pooled),[18],−0.5 (5.45)
same,SHAPS Total Score Change from Baseline Mean (SD),"fITT Analysis Set, Treatment Week 6 (Table 29)",−4.7
same,SHAPS Total Score Mean Change from Baseline (SD),"fITT Analysis Set, Treatment Week 6 (Table 30)",−4.7 (5.91)
same,SHAPS Total Score Change from Baseline LSMean (SE),[18],−4.5
same,SHAPS Total Score LSMean Difference (SE) Treatment Placebo,[18],−0.8 (0.73)
same,SHAPS Total Score Effect Size,[18],−0.08
same,SHAPS total score mean change from treatment baseline (SD),"fITT, Treatment Week 6",−4.7 (5.91)
same,SHAPS total score observed effect size,"fITT, Treatment Week 6",0.08
